# From PubChem BioAssay (NCI)
#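 A five-concentration, 48-hour dose response in 96-well plates underlies each endpoint, interpolated linearly between surrounding concentrations. Abbreviation: GI50, concentration required for 50% inhibition of growth. At the TGI there is no net growth.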
# How the values were obtained:
# Test in all cases: NCI anticancer screen, dose series, 48 h
# K-562 leukemia = test system: K-562 leukemia
# COLO 205 colon = test system: COLO 205 colon
# T-47D breast = test system: T-47D breast
# SF-539 CNS = test system: SF-539 CNS
# SN12C renal = test system: SN12C renal
# OVCAR-4 ovarian = test system: OVCAR-4 ovarian
# U251 CNS = test system: U251 CNS
# A498 renal = test system: A498 renal
# KM12 colon = test system: KM12 colon
# UACC-62 melanoma = test system: UACC-62 melanoma
# A549 NSCLC = test system: A549 NSCLC
# ACHN renal = test system: ACHN renal
# SK-MEL-5 melanoma = test system: SK-MEL-5 melanoma
# SK-MEL-28 melanoma = test system: SK-MEL-28 melanoma
# NCI-H226 lung = test system: NCI-H226 lung
# RXF 393 renal = test system: RXF 393 renal
# DU-145 prostate = test system: DU-145 prostate
# MDA-MB-231 breast = test system: MDA-MB-231 breast
# OVCAR-5 ovarian = test system: OVCAR-5 ovarian
# SK-MEL-2 melanoma = test system: SK-MEL-2 melanoma
# MOLT-4 leukemia = test system: MOLT-4 leukemia
# MALME-3M melanoma = test system: MALME-3M melanoma
# SNB-19 CNS = test system: SNB-19 CNS
# SK-OV-3 ovarian = test system: SK-OV-3 ovarian
# OVCAR-8 ovarian = test system: OVCAR-8 ovarian
# HL-60(TB) leukemia = test system: HL-60(TB) leukemia
# RPMI-8226 leukemia = test system: RPMI-8226 leukemia
# EKVX NSCLC = test system: EKVX NSCLC
# HT29 colon = test system: HT29 colon
# HCT-116 colon = test system: HCT-116 colon
# NCI-H460 lung = test system: NCI-H460 lung
# SNB-75 CNS = test system: SNB-75 CNS
# UO-31 renal = test system: UO-31 renal
# HOP-92 NSCLC = test system: HOP-92 NSCLC
# M14 melanoma = test system: M14 melanoma
# NCI/ADR-RES ovarian = test system: NCI/ADR-RES ovarian
# IGROV1 ovarian = test system: IGROV1 ovarian
# SF-295 CNS = test system: SF-295 CNS
# BT-549 breast = test system: BT-549 breast
# OVCAR-3 ovarian = test system: OVCAR-3 ovarian
# 786-0 renal = test system: 786-0 renal
# PC-3 prostate = test system: PC-3 prostate
# CAKI-1 renal = test system: CAKI-1 renal
# SR leukemia = test system: SR leukemia
# NCI-H522 lung = test system: NCI-H522 lung
# MCF7 breast = test system: MCF7 breast
# HCC-2998 colon = test system: HCC-2998 colon
# HOP-62 NSCLC = test system: HOP-62 NSCLC
# TK-10 renal = test system: TK-10 renal
# MDA-MB-435 = test system: MDA-MB-435
# CCRF-CEM leukemia = test system: CCRF-CEM leukemia
# HS 578T breast = test system: HS 578T breast
# LOX IMVI melanoma = test system: LOX IMVI melanoma
# HCT-15 colon = test system: HCT-15 colon
# UACC-257 melanoma = test system: UACC-257 melanoma
# SF-268 CNS = test system: SF-268 CNS
# SW-620 colon = test system: SW-620 colon
smiles,measurement,setting,value
N#Cc1c(-n2c(Br)c(Br)c3cc(Br)ccc32)[nH]c2c(Br)cc(Br)cc12,GI50,K-562 leukemia,0.735 µM
same,TGI,K-562 leukemia,> 50 µM
same,GI50,COLO 205 colon,1.1 µM
same,TGI,COLO 205 colon,3.09 µM
same,GI50,T-47D breast,1.09 µM
same,TGI,T-47D breast,6.48 µM
same,GI50,SF-539 CNS,1.47 µM
same,TGI,SF-539 CNS,> 39.6 µM
same,GI50,SN12C renal,1.27 µM
same,TGI,SN12C renal,> 17.9 µM
same,GI50,OVCAR-4 ovarian,1.57 µM
same,TGI,OVCAR-4 ovarian,> 50 µM
same,GI50,U251 CNS,1.19 µM
same,TGI,U251 CNS,> 31.4 µM
same,GI50,A498 renal,0.767 µM
same,TGI,A498 renal,2.4 µM
same,GI50,KM12 colon,1.45 µM
same,TGI,KM12 colon,6.41 µM
same,GI50,UACC-62 melanoma,1.14 µM
same,TGI,UACC-62 melanoma,3.21 µM
same,GI50,A549 NSCLC,1.73 µM
same,TGI,A549 NSCLC,> 50 µM
same,GI50,ACHN renal,3.23 µM
same,TGI,ACHN renal,> 50 µM
same,GI50,SK-MEL-5 melanoma,0.907 µM
same,TGI,SK-MEL-5 melanoma,1.91 µM
same,GI50,SK-MEL-28 melanoma,1.49 µM
same,TGI,SK-MEL-28 melanoma,8.53 µM
same,GI50,NCI-H226 lung,1.14 µM
same,TGI,NCI-H226 lung,3.2 µM
same,GI50,RXF 393 renal,0.904 µM
same,TGI,RXF 393 renal,3.48 µM
same,GI50,DU-145 prostate,2.25 µM
same,TGI,DU-145 prostate,> 50 µM
same,GI50,MDA-MB-231 breast,1.45 µM
same,TGI,MDA-MB-231 breast,> 20.6 µM
same,GI50,OVCAR-5 ovarian,2.95 µM
same,TGI,OVCAR-5 ovarian,> 50 µM
same,GI50,SK-MEL-2 melanoma,0.882 µM
same,TGI,SK-MEL-2 melanoma,1.91 µM
same,GI50,MOLT-4 leukemia,1.31 µM
same,TGI,MOLT-4 leukemia,4.09 µM
same,GI50,MALME-3M melanoma,1.68 µM
same,TGI,MALME-3M melanoma,7.21 µM
same,GI50,SNB-19 CNS,1.34 µM
same,TGI,SNB-19 CNS,> 50 µM
same,GI50,SK-OV-3 ovarian,1.41 µM
same,TGI,SK-OV-3 ovarian,4.18 µM
same,GI50,OVCAR-8 ovarian,1.66 µM
same,TGI,OVCAR-8 ovarian,> 29.4 µM
same,GI50,HL-60(TB) leukemia,1.24 µM
same,TGI,HL-60(TB) leukemia,2.95 µM
same,GI50,RPMI-8226 leukemia,0.859 µM
same,TGI,RPMI-8226 leukemia,2.56 µM
same,GI50,EKVX NSCLC,2.04 µM
same,TGI,EKVX NSCLC,> 50 µM
same,GI50,HT29 colon,1.48 µM
same,TGI,HT29 colon,5.23 µM
same,GI50,HCT-116 colon,0.986 µM
same,TGI,HCT-116 colon,2.99 µM
same,GI50,NCI-H460 lung,1.48 µM
same,TGI,NCI-H460 lung,6.03 µM
same,GI50,SNB-75 CNS,0.954 µM
same,TGI,SNB-75 CNS,3.79 µM
same,GI50,UO-31 renal,5.45 µM
same,TGI,UO-31 renal,16.1 µM
same,GI50,HOP-92 NSCLC,0.383 µM
same,TGI,HOP-92 NSCLC,1.9 µM
same,GI50,M14 melanoma,1.49 µM
same,TGI,M14 melanoma,7.6 µM
same,GI50,NCI/ADR-RES ovarian,1.2 µM
same,TGI,NCI/ADR-RES ovarian,3.63 µM
same,GI50,IGROV1 ovarian,2.14 µM
same,TGI,IGROV1 ovarian,> 50 µM
same,GI50,SF-295 CNS,0.878 µM
same,TGI,SF-295 CNS,2 µM
same,GI50,BT-549 breast,1.16 µM
same,TGI,BT-549 breast,2.64 µM
same,GI50,OVCAR-3 ovarian,1.94 µM
same,TGI,OVCAR-3 ovarian,> 50 µM
same,GI50,786-0 renal,1.58 µM
same,TGI,786-0 renal,8.78 µM
same,GI50,PC-3 prostate,0.982 µM
same,TGI,PC-3 prostate,3.99 µM
same,GI50,CAKI-1 renal,1.55 µM
same,TGI,CAKI-1 renal,9.73 µM
same,GI50,SR leukemia,1.22 µM
same,TGI,SR leukemia,6.12 µM
same,GI50,NCI-H522 lung,0.788 µM
same,TGI,NCI-H522 lung,2.56 µM
same,GI50,MCF7 breast,1.16 µM
same,TGI,MCF7 breast,7.11 µM
same,GI50,HCC-2998 colon,1.32 µM
same,TGI,HCC-2998 colon,15.7 µM
same,GI50,HOP-62 NSCLC,1.38 µM
same,TGI,HOP-62 NSCLC,4.14 µM
same,GI50,TK-10 renal,1.59 µM
same,TGI,TK-10 renal,4.54 µM
same,GI50,MDA-MB-435,2.02 µM
same,TGI,MDA-MB-435,9.38 µM
same,GI50,CCRF-CEM leukemia,1.38 µM
same,TGI,CCRF-CEM leukemia,> 18.2 µM
same,GI50,HS 578T breast,1.06 µM
same,TGI,HS 578T breast,3.56 µM
same,GI50,LOX IMVI melanoma,5.74 µM
same,TGI,LOX IMVI melanoma,15.7 µM
same,GI50,HCT-15 colon,0.938 µM
same,TGI,HCT-15 colon,> 18.3 µM
same,GI50,UACC-257 melanoma,1.38 µM
same,TGI,UACC-257 melanoma,5.74 µM
same,GI50,SF-268 CNS,1.5 µM
same,TGI,SF-268 CNS,> 50 µM
same,GI50,SW-620 colon,1.59 µM
same,TGI,SW-620 colon,> 50 µM
